Like-named read-outs stand apart in the source and are kept apart here.
Key:
[1] = Rat pharmacokinetic study, first study; assay type: in vivo, rats (Sprague Dawley, male); conditions: plasma; for bioavailability: ratio of dose-normalized AUC0-10 oral/IV
Method: In the first study, the crystalline indibulin, 10% A and 25% A SDDs were administered p.o. at 10 and 15 mg/kg to rats (Sprague Dawley, male) and plasma concentrations of indibulin were determined at several time points.
In particular, all rats used in this study were fasted 12 hours prior to dose, and food was returned 4 hours post dose. 10% A and 25% A indibulin HPMCAS SDD formulations (as prepared in Example 1(a)) were used in this study. Indibulin in crystalline form was suspended in 0.5% Methocel A at 10 mg/kg, and 15 mg/kg by vortexing and sonicating. The indibulin SDD formulations were made by combining 10% active indibulin SDD at 10 mg/kg and 15 mg/kg, 25% active indibulin SDD at 10 mg/kg and 15 mg/kg using a mortar with 0.5% Methocel A and using a pestle to gradually mix in to solution. There were six rats per group, all animals were weighed and dose volume calculated so that each rat received test article orally at a volume of 10 mL/kg. The first three rats in each group were bled at 0.5, 2, and 6 hours post dose; the remaining three rats in each group were bled at 1, 4, and 10 hours post dose. For blood collection at all time points all animals were anesthetized with an inhalation of 4% isoflurane and 1.5% oxygen, once it was determined that the animal was adequately anesthetized (no reaction to physical stimulation) using a capillary tube the orbital venous plexus was punctured and a volume of 1 mL of blood was collected in to a sodium heparin tube. Once the blood was collected the sodium heparin tube was inverted ten times, and placed on ice until centrifuged for 10 minutes at 2510 rpm. The plasma was decanted in to labeled Eppendorfs and stored at −80° C. until analyzed by HPLC with MS/MS Detection. All data were acquired using Applied Biosystems/MDS-Sciex Analyst Version 1.5, processed; reported using Watson Version 7.3.0.01TM, Thermo Fisher Scientific, Inc.; and are summarized in FIGS. 12 and 14 and Tables 16, 17, and 18. Table 17 is summary of maximum plasma concentrations of indibulin (Cmax), time for maximum plasma concentration to occur (tmax), and plasma area under the curve values (AUC0-t). […] Table 18 also includes comparative data for a solutol/propylene glycol indibulin formulation, administered by IV and orally.

[2] = Membrane-permeation test; assay type: physicochemical; conditions: feed MFDS, 37° C.
Method: The 10% A HPMCAS-H(HPMCAS high grade), 15% A HPMCAS-H, 20% A HPMCAS-H, 25% A HPMCAS-H, 25% A HPMCAS-M (HPMCAS medium grade) and 50% A HPMCAS-M SDD formulations were also evaluated in a membrane-permeation test at 37° C. in a temperature-controlled box. Test procedures were described, for example, in U.S. Pat. No. 7,611,630. For example, a membrane-permeation test of 10% A HPMCAS-H indibulin SDD was performed using the following procedures: • 1. Accurately weigh 1 mgA (10 mg of 10% A:HPMCAS-H SDD) into the outer-glass reservoir of the test apparatus. All samples are prepared in duplicates. • 2. Add 5 mL MFDS and start the timer. • 3. Cap each reservoir and vortex at medium setting for 1 minute. Stir at 100 rpm. • 4. After 9 minutes of addition of MFDS, add 5 mL of 80/20 (wt/wt) […]/Decane permeate to the inside of the membrane cells. • 5. After 1 minute (at 10 minutes) place a cell containing the permeate solution into the outer reservoir holding the feed/drug solution. Take a O-minute time point. Tilt the entire apparatus at a 45° angle to ensure that no air bubbles are trapped under the membrane. • 6. Place apparatus back on stir plate at 100 rpm. • 7. […]
This test assessed the rate of solubilized drug indibulin that passed through a synthetic membrane from aqueous MFDS to an aqueous immiscible organic sink solution. […]

[3] = Microcentrifuge dissolution test in model fasted duodenal solution (MFDS); assay type: physicochemical; conditions: dosed at 200 μgA/mL
Method: The microcentrifuge dissolution test was performed to assess the ability of the indibulin SDD to sustain solubilized drug levels and to determine suspension stability. Using this method, 10% A HPMCAS-H(HPMCAS high grade), 15% A HPMCAS-H, 20% A HPMCAS-H, 25% A HPMCAS-H, 25% A HPMCAS-M (HPMCAS medium grade) and 50% A HPMCAS-M SDD formulations were tested. Specifically, the microcentrifuge dissolution test measures the supersaturation of drug above the crystalline solubility when dosed into the model fasted duodenal solution (MFDS).
In the microcentrifuge dissolution test, indibulin HPMCAS SDDs were each dosed into MFDS, which is 0.5% taurocholic acid, sodium salt hydrate (NaTC)/1-palmitoyl-2-oleoyl-sn-glycero-3-phosphocholine (POPC) in phosphate buffer solution (PBS, pH 6.5). In each resulted sample, the concentration of dissolved indibulin would have been 200 μg active drug per mL (200 μgA/mL), if all of the indibulin had dissolved. The samples were centrifuged at 13,000 rpm at 37° C. for 1 minute. The supernatant solution of each sample was then analyzed by HPLC. The remaining sample was mixed and allowed to stand undisturbed until next measurement was taken. […]

[4] = cited from earlier work
[5] = male, Sprague Dawley, po, First Study, rat p.o. 15 mg/kg (90 mg/m^2)

**Q.** For O=C(Nc1ccncc1)C(=O)c1cn(Cc2ccc(Cl)cc2)c2ccccc12 [Bulk Crystalline Drug, indibulin], which Tmax ([1]; Sprague Dawley, rat, Male S-D Rats, Oral (Gavage) 10 mg/kg) is on record?
**A.** 2 h

**Q.** And the bioavailability ([1]; Sprague Dawley, rat, Male S-D Rats, Oral (Gavage) 15 mg/kg, read-out: F (%))?
**A.** 1.5%

**Q.** And the half-life ([1]; Sprague Dawley, rat, Male S-D Rats, Oral (Gavage) 15 mg/kg, read-out: Terminal t1/2 (converted))?
**A.** 354 min

**Q.** What about the bioavailability ([1]; Sprague-Dawley, rat, Male S-D Rats, Oral (Gavage) 10 mg/kg, read-out: F (%), absolute oral bioavailability) of the same compound?
**A.** 2.4%

**Q.** What about the Cmax [1, 5] of the same compound?
**A.** 6 ng/mL

**Q.** What about the Tmax [1, 5] of the same compound?
**A.** 1 h

**Q.** What about the Cmax ([1]; male, Sprague Dawley, rat, po, 10 mg/kg, Male S-D Rats, Oral (Gavage) 10 mg/kg) of the same compound?
**A.** 18 ng/mL

**Q.** And the AUC(0-t) ([1]; male, Sprague Dawley, rat, po, 10 mg/kg, Male S-D Rats, Oral (Gavage) 10 mg/kg, read-out: AUC0-10)?
**A.** 63.6 ng·h/mL

**Q.** What about the AUC(0-t) ([1]; male, Sprague Dawley, rat, po, 15 mg/kg, First Study, rat p.o. 15 mg/kg (90 mg/m^2), read-out: AUC0-t) of the same compound?
**A.** 31 ng·h/mL

**Q.** And the Cmax ([1]; male, Sprague Dawley, rat, po, 15 mg/kg, Male S-D Rats, Oral (Gavage) 15 mg/kg)?
**A.** 16.5 ng/mL

**Q.** And the AUC(0-t) ([1]; male, Sprague Dawley, rat, po, 15 mg/kg, Male S-D Rats, Oral (Gavage) 15 mg/kg, read-out: AUC0-10)?
**A.** 56.6 ng·h/mL

**Q.** And the Tmax ([1]; male, Sprague-Dawley, po, First Study, rat p.o. 10 mg/kg (60 mg/m^2))?
**A.** 2 h

**Q.** What about the Cmax ([1]; male, Sprague-Dawley, rat, po, 10 mg/kg, First Study, rat p.o. 10 mg/kg (60 mg/m^2)) of the same compound?
**A.** 18 ng/mL

**Q.** And the AUC(0-t) ([1]; male, Sprague-Dawley, rat, po, 10 mg/kg, First Study, rat p.o. 10 mg/kg (60 mg/m^2), read-out: AUC0-t)?
**A.** 61 ng·h/mL

**Q.** And the Cmax ([1]; male, Sprague-Dawley, rat, po, 15 mg/kg, Male S-D Rats, Oral (Gavage) 15 mg/kg)?
**A.** 13 ng/mL

**Q.** What about the “Average Flux” value [2] of the same compound?
**A.** 0.10 μgA/cm^2 × min

**Q.** What about the AUC90 ([3]; MFDS pH 6.5, first 90 min) of the same compound?
**A.** 160 µg·min/mL

**Q.** And the C90 ([3]; concentration in MFDS at 90 min)?
**A.** 1 µg/mL

**Q.** What about the C1200 ([3]; concentration in MFDS at 1200 min) of the same compound?
**A.** 3 µg/mL

**Q.** And the Cmax90 ([3]; maximum concentration of indibulin in MFDS pH 6.5, first 90 min)?
**A.** 2 µg/mL

**Q.** And the “solubility in water, methanol, ethanol or 2-propanol” value [4]?
**A.** practically insoluble
